Data published in patent US20110015080A1, “Solution-based methods for RNA expression profiling” (MASSACHUSETTS INSTITUTE OF TECHNOLOGY, priority 2005, published 2011).
Several values for one entry are separate records, joined by “and”; a condition that tells them apart may be missing. Equal values may be shown once. Entries after “also recorded” stand apart in the source; their conditions may differ.

Assays:
[1] = system: HL-60 acute myeloblastic leukemia cells; conditions: treatment during a course of 5 days (Stegmaier et al., 2004); cited from earlier work
[2] = system: HL60 (human promyelocytic leukemia) cells; assay: LMA-FlexMAP analysis of microtiter well cultures of HL60 cells treated with tretinoin or DMSO, KNN classification; conditions: HL60 cells treated with tretinoin, Experiment 3, replicate samples

CC1=C(/C=C/C(C)=C/C=C/C(C)=C/C(=O)O)C(C)(C)CCC1 [tretinoin, all-trans-retinoic acid]
differentiation of HL-60 cells [1]: potent inducer of neutrophilic differentiation; also recorded: differentiate with increasing neutrophil characteristics | FlexMap signal, ACTB (LUA#91) [2]: 2538 and 2604.5 and 452 and 812 and 1191 and 2112.5 and 2760 and 2845 and 2391 and 144.5 | FlexMap signal, GAPDH_3 (LUA#95) [2]: 2330.5 and 2534 and 579 and 1017 and 1438 and 2495.5 and 2680 and 2718 and 2148 and 172 | FlexMap signal, GAPDH_5 (LUA#93) [2]: 1699 and 1739.5 and 261.5 and 439.5 and 741 and 1388 and 1787 and 1865 and 1714 and 97 | FlexMap signal, GAPDH_M (LUA#94) [2]: 1342.5 and 1462 and 221.5 and 396 and 590.5 and 1179.5 and 1602 and 1586 and 1267.5 and 79 | FlexMap signal, NM_000147 (LUA#29) [2]: 987 and 1072 and 95 and 188.5 and 323 and 713 and 1109 and 1156 and 905 and 43 | FlexMap signal, NM_000211 (LUA#39) [2]: 1072 and 1160 and 204.5 and 356 and 501 and 939 and 1215 (2×) and 924.5 and 109 | FlexMap signal, NM_000250 (LUA#87) [2]: 141 and 157 and 46 and 52 and 67 and 115 and 159 and 166 and 131 and 38 | FlexMap signal, NM_000414 (LUA#22) [2]: 384 and 448 and 48 and 74 and 114 and 272.5 and 479 and 477.5 and 378 and 35 | FlexMap signal, NM_000433 (LUA#28) [2]: 454 and 548 and 62 and 105 and 169 and 371.5 and 580.5 and 600.5 and 406 and 32 | FlexMap signal, NM_000584 (LUA#30) [2]: 1878.5 and 1840 and 240 and 426 and 663 and 1369.5 and 1886 and 1908.5 and 1555 and 96.5 | FlexMap signal, NM_000884 (LUA#81) [2]: 670 and 692 and 126 and 209 and 304 and 612 and 794.5 and 804 and 624 and 58 | FlexMap signal, NM_001034 (LUA#67) [2]: 170 and 171 and 42 and 47 and 73 and 122 and 178 and 184 and 155 and 33 | FlexMap signal, NM_001101 (LUA#34) [2]: 2622 and 2644 and 799 and 1279 and 1711 and 2759.5 and 2895 and 2880 and 2335 and 235 | FlexMap signal, NM_001469 (LUA#79) [2]: 988.5 and 1104 and 141.5 and 246.5 and 395 and 731.5 and 1124 and 1134 and 921 and 75.5 | FlexMap signal, NM_001498 (LUA#18) [2]: 397 and 391.5 and 40 and 71 and 121 and 262 and 386 and 382 and 279 and 30 | FlexMap signal, NM_001684 (LUA#23) [2]: 52.5 and 60 (2×) and 30 and 31.5 and 31 and 52 and 66 and 49 and 25 | FlexMap signal, NM_001948 (LUA#84) [2]: 63 and 62 and 34 and 38 (2×) and 50 and 61 and 59 and 54 and 33 | FlexMap signal, NM_002166 (LUA#25) [2]: 169.5 and 207 and 37 and 51 and 74 and 132 and 188.5 and 211 and 170 and 29 | FlexMap signal, NM_002467 (LUA#90) [2]: 571 and 552.5 and 136 and 162 and 239 and 409.5 and 576 and 644 and 527 and 86 | FlexMap signal, NM_002468 (LUA#40) [2]: 367 and 421 and 57.5 and 93 and 132.5 and 303 and 450 and 473.5 and 357 and 36.5 | FlexMap signal, NM_002539 (LUA#74) [2]: 276 and 278.5 and 46 and 74 and 209 and 271 and 323.5 and 225 and 36 | FlexMap signal, NM_002624 (LUA#36) [2]: 1359 and 1343 and 253.5 and 500 and 700.5 and 1234 and 1402 and 1395 and 1167.5 and 79 | FlexMap signal, NM_002664 (LUA#38) [2]: 1922 and 1934 and 383 and 702 and 1051.5 and 1832 and 2052 and 2064 and 1635.5 and 101 | FlexMap signal, NM_002970 (LUA#42) [2]: 1316 and 1443 and 164 and 329 and 528 and 1106 and 1508 and 1570.5 and 1247 and 57 | FlexMap signal, NM_002982 (LUA#45) [2]: 3449 and 3440 and 1175 and 1759 and 2328 and 3359 and 3548 and 3612.5 and 3101 and 373 | FlexMap signal, NM_003132 (LUA#68) [2]: 431 and 428 and 74 and 117.5 and 194 and 367 and 461 and 482 and 344 and 38 | FlexMap signal, NM_003172 (LUA#19) [2]: 208 and 227 and 45 and 68 and 97 and 199 and 234 and 250 and 179 and 33 | FlexMap signal, NM_003332 (LUA#43) [2]: 2312 and 2346.5 and 591 and 1003 and 1446 and 2239 and 2492 and 2467 and 2041 and 177.5 | FlexMap signal, NM_003581 (LUA#62) [2]: 40.5 and 39.5 and 40 (2×) and 36 and 42 and 47 and 46.5 and 46 and 33 | FlexMap signal, NM_003644 (LUA#17) [2]: 181.5 and 53 and 72 and 75.5 and 220 and 238.5 and 179 and 39 | FlexMap signal, NM_003752 (LUA#82) [2]: 116 and 113 and 54 (2×) and 66 and 93 and 105 and 123 and 96 and 41 | FlexMap signal, NM_003879 (LUA#24) [2]: 65 and 69 and 23 and 29 and 36 and 51 and 77 and 76 and 59 and 34 | FlexMap signal, NM_004079 (LUA#21) [2]: 113 and 124 (2×) and 34 and 41 and 53 and 88 and 122 and 121 and 30 | FlexMap signal, NM_004095 (LUA#59) [2]: 169 and 205 and 46 and 66 and 86.5 and 166.5 and 221 and 208.5 and 147 and 36 | FlexMap signal, NM_004106 (LUA#44) [2]: 1458 and 1423 and 235 and 457 and 672 and 1276 and 1500 and 1506 and 1234 and 68 | FlexMap signal, NM_004134 (LUA#76) [2]: 268 and 286 and 47.5 and 67 and 93 and 182 and 284 and 297 and 240 and 36 | FlexMap signal, NM_004152 (LUA#31) [2]: 1845 and 1993 and 319 and 601 and 837 and 1645 and 2020 and 2157.5 and 1685 and 90.5 | FlexMap signal, NM_004526 (LUA#88) [2]: 153.5 and 172 and 43 and 61 and 76.5 and 187.5 and 191 and 138 and 37 | FlexMap signal, NM_004602 (LUA#32) [2]: 255 and 274.5 and 61 and 87.5 and 116 and 185 and 270 and 293 and 288 and 46 | FlexMap signal, NM_004723 (LUA#20) [2]: 281 and 329 and 61 and 105 and 151 and 271.5 and 350 and 352 and 258 and 37
